Assay results as given in US7238689B2, “Isoxazoline derivative and herbicide comprising the same as active ingredient” (Ihara Chemical Industry Co., Ltd., priority 2001, dated 2007).

Key:
Type in all cases: in vivo
Parameters in all cases: scale not given here
[1] = tested on: Echinochloa oryzicola Vasing; assay: Herbicidal effect by paddy field soil treatment; conditions: wettable powder, active ingredient 1000 g/ha, examined at the 21st day from the treatment
Method in brief: (§1)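 Seeds sown in puddled paddy soil under 3 cm of water; the next day wettable powders diluted in water were dropped onto the water surface at 1,000 g active ingredient/ha. Plants grown in a greenhouse, with herbicidal effect scored on day 21 against a rating standard.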

[2] = tested on: Monochoria vaginalis (Murm. f.) Presl var. plantaginea (Roxb.) Solms-Laub.; assay: Herbicidal effect by paddy field soil treatment; conditions: wettable powder, active ingredient 1000 g/ha, examined at the 21st day from the treatment
Method in brief: as §1

[3] = tested on: Echinochloa crus-galli (L.) Beauv. var. crusgalli; assay: Herbicidal effect by upland field soil treatment; conditions: active ingredient 1000 g/ha, examined at 21st day from treatment
Source text: (§2) An upland field soil was filled in a plastic pot of 80 cm^2. Seeds of Echinochloa crus-galli (L.) Beauv. var. crusgalli and Setaria viridis (L.) Beauv. were sowed, followed by covering with the same soil. […] Then, breeding was made in a greenhouse, and the herbicidal effect of each wettable powder was examined at the 21st day from the treatment in accordance with the standard shown in Table 21.

[4] = tested on: Setaria viridis (L.) Beauv.; assay: Herbicidal effect by upland field soil treatment; conditions: active ingredient 1000 g/ha, examined at 21st day from treatment
Source text: as §2

[5] = tested on: Echinochloa crus-galli (L.) Beauv. var. crus-galli; assay: Herbicidal effect by upland foliage treatment; conditions: active ingredient 1000 g/ha, examined at 14th day from treatment
Method: (§3) A sand was filled in a plastic pot of 80 cm^2. Seeds of Echinochloa crus-galli (L.) Beauv. var. crus-galli and Setaria viridis (L.) Beauv. were sowed. Breeding was made in a greenhouse for 2 weeks. Wettable powders produced in accordance with the Formulation 1 were diluted with water and sprayed on the whole foliage of plants from above the plants using a small sprayer in an amount of 1,000 liters per 1 hectare so that the amount of each active ingredient became 1,000 g per 1 hectare. Then, breeding was made in the greenhouse, and the herbicidal effect of each wettable powder was examined at the 14th day from the treatment in accordance with the standard shown in Table 21.

[6] = tested on: Setaria viridis (L.) Beauv.; assay: Herbicidal effect by upland foliage treatment; conditions: active ingredient 1000 g/ha, examined at 14th day from treatment
Method: as §3

Row | Compound | Herbicidal effect index, Echinochloa oryzicola Vasing [1] | Herbicidal effect index, Monochoria vaginalis (Burm. F.) Presl var. plantaginea (Roxb.) Solms-Laub. [2] | herbicidal effect (index per standard of Table 21), Echinochloa curs-galli (L.) Beauv. Var. crus-galli [3] | herbicidal effect (index per standard of Table 21), Setaria viridis (L.) Beauv. [4] | herbicidal effect (index per standard of Table 21), Echinochloa curs-galli (L.) Beauv. Var. crus-galli [5] | herbicidal effect (index per standard of Table 21), Setaria viridis (L.) Beauv. [6]
1 | Cc1nn(C)c(CS(=O)(=O)C2=NOC(C)(C)C2)c1Cl [5-0001] | 5 | 5 | 5 | 5 | 5 | 4
2 | Cc1noc(C)c1CS(=O)(=O)C1=NOC(C)(C)C1 [4-0005] | 5 | 5 | 5 | 5 | 5 | 4
3 | CC1(C)CC(S(=O)(=O)Cc2ccccn2)=NO1 [9-0001] | 5 | 5 | 5 | 5 | 4 | 4
4 | CC1(C)CC(S(=O)(=O)Cc2c(C(F)(F)F)cnn2-c2ccccc2)=NO1 [5-0007] | 5 | 5 | 5 | 5 | 5 | 5
5 | CC1(C)CC(S(=O)(=O)Cc2csc(Cl)n2)=NO1 [9-0008] | 5 | 5 | 5 | 5 | 4 | 4
6 | CCn1nc(C(F)(F)F)c(CS(=O)(=O)C2=NOC(C)(C)C2)c1Cl [3-0073] | 5 | 5 | 5 | 5 | 5 | 4
7 | CCC(C)n1nc(Cl)c(CS(=O)(=O)C2=NOC(C)(C)C2)c1C(F)(F)F (stereo not drawn) [3-0082] | 5 | 5 | 5 | 5 | 4 | 4
8 | CC(C)Cn1nc(Cl)c(CS(=O)(=O)C2=NOC(C)(C)C2)c1C(F)(F)F [3-0084] | 5 | 5 | 5 | 5 | 4 | 4
9 | CC1(C)CC(S(=O)(=O)Cc2ncon2)=NO1 [9-0005] | 5 | 5 | 5 | 4 | 4 | 4
10 | CC1(C)CC(S(=O)(=O)Cc2sccc2Cl)=NO1 [1-0004] | 5 | 5 | 5 | 5 | 5 | 4
11 | CCn1nc(Cl)c(CS(=O)(=O)C2=NOC(C)(C)C2)c1C(F)(F)F [3-0074] | 5 | 5 | 5 | 5 | 5 | 4
12 | Cn1ncc(CS(=O)(=O)C2=NOC(C)(C)C2)c1Cl [3-0035] | 5 | 5 | 5 | 5 | 4 | 4
13 | COCn1nc(Cl)c(CS(=O)(=O)C2=NOC(C)(C)C2)c1C(F)(F)F [3-0119] | 5 | 5 | 5 | 5 | 5 | 4
14 | Cn1nc(Cl)c(CS(=O)(=O)C2=NOC(C)(C)C2)c1Cl [3-0038] | 5 | 5 | 5 | 5 | 5 | 5
15 | CC(=O)c1c(C)sc(C)c1CS(=O)(=O)C1=NOC(C)(C)C1 [2-0008] | 5 | 5 | 5 | 5 | 5 | 5
16 | COc1cscc1CS(=O)(=O)C1=NOC(C)(C)C1 [2-0004] | 5 | 5 | 5 | 5 | 5 | 4
17 | Cc1nsc(Cl)c1CS(=O)(=O)C1=NOC(C)(C)C1 [4-0002, [(5-chloro-3-methyl-isothiazol-4-yl)-methylsulfonyl]-5,5-dimethyl-2-isoxazoline] | 5 | 5 | 5 | 5 | 5 | 4
18 | CC1(C)CC(S(=O)(=O)Cc2c(Cl)nn(CC(F)F)c2C(F)(F)F)=NO1 [3-0115] | 5 | 5 | 5 | 5 | 5 | 4
19 | 5,5-dimethyl-[(4-methoxy-6-trifluoromethylpyrimidin-5-yl)-methylsulfonyl]-2-isoxazoline [8-0001] | 5 | 5 | 5 | 5 | 5 | 4
20 | Cn1nc(C(F)(F)F)c(CS(=O)(=O)C2=NOC(C)(C)C2)c1OC1CCCCC1 [3-0049] | 5 | 5 | 5 | 5 | 4 | 4
